This is an account of results in patent US20150031892A1, “SPHINGOLIPID METABOLITE MIMETICS” (Zhejiang University, priority 2012, published 2015).

Common to all, as to type: cell-based
One assay deals with HepG2. Description: MTT cytotoxicity assay, HepG2 (liver cancer). Particulars: Homo sapiens. In a few lines: (§1)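 Cells were seeded at 7000 per well for 24 h, then given fresh medium with the mimetics at final concentrations of 0 to 200 μM. Viability was measured by adding 1 mg/ml MTT for 4 h at 37° C, dissolving the formazan in DMSO and reading absorbance at 570 nm.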
A general note: Tetrazolium dyes change colour on reduction, which living cells bring about.

In assay [1] the test system is multiple types of cancer cells. Description: MTT cytotoxicity, statements over several cancer cell lines. The conditions noted are these: for direct anti-cancer cell activity: summary statement. As to the method: Cell survival after exposure to the sphingolipid metabolite mimetics was examined by MTT cytotoxicity assay. HepG2, A431, HeLa, MCF-7 and SA cells (7000 cells/well) were seeded in each well of a 96-well plate for 24 h. New medium was added to give final concentrations of 0 to 200 μM of the sphingolipid metabolite mimetics. Then, 50 μl of 1 mg/ml 3-(4,5-dimethylthiazol-2-yl)-2,5-diphenyltetrazolium bromide (MTT, Sigma-Aldrich Chemical) was added to each well for 4 h incubation at 37° C. The purple formazan formed was then solubilized by DMSO and absorbance at 570 nm was read by a microplate reader (Molecular Devices, Sunnyvale, Calif.).

A further assay relates to A431. As to the kind of experiment: MTT cytotoxicity assay, A431 (squamous carcinoma). Particulars: Homo sapiens, A-431. In a few lines:
as §1

For the next assay, the system named is SiHa. As to the kind of experiment: MTT cytotoxicity assay, SiHa (ovarian cancer as headed). The conditions noted are these: Homo sapiens, Cervical Cancer SiHa.
The subject of the next assay is SW480. Description: MTT cytotoxicity assay, SW480 (colon cancer). Particulars: Homo sapiens.
The test system of another assay is MES-SA cells. Description: Apoptosis assay, Hoechst 33342 fluorescence staining. The conditions noted are these: doses of their IC50 for 8 h. As to the method: The cells were then washed with PBS and stained with Hoechst 33342 (from sigma chemical) for 20 min in the dark. Morphologic changes were analyzed under a fluorescence microscope. The experiment was repeated three times.

The subject of the next assay is SA. As to the kind of experiment: MTT cytotoxicity assay, SA (pancreatic cancer as headed). In a few lines:
as §1

The test system of another assay is SW620. Description: MTT cytotoxicity assay, SW620 (colon cancer). The conditions noted are these: Homo sapiens, SW-620.
The test system of the next assay is MCF-7. Description: MTT cytotoxicity assay, MCF-7 (breast cancer). Particulars: Homo sapiens, MCF7; Breast Cancer MCF-7, MTT. In a few lines: as §1
In a further assay the test system is SW620 cells. As to the kind of experiment: Drug sensitivity MTT assay with TRAIL, SW620. The conditions noted are these: for NZJU alone mean value (sensitivity, growth inhibition): drug alone (19-100 μM; TRAIL 100 ng/ml); for NZJU alone mean value (sensitivity, growth inhibition) / combine mean value (sensitivity, growth inhibition): 48 h; for Enhanced mean value: enhancement due to co-administration with TRAIL; for combine mean value (sensitivity, growth inhibition): mimetic at the dose of its row combined with TRAIL 100 ng/ml. Also on record: scale not given here. As to the method:
(§2) Cell survival after exposure to the anti-tumor agents was examined by MTT cytotoxicity assay. Cells were seeded in each well of a 96-well plate for 24 h. After incubation with various concentrations of compounds, TRAIL, or both for 48 h, the medium was discarded. Then, 50 μl of 1 mg/ml 3-(4,5-dimethylthiazol-2-yl)-2,5-diphenyltetrazolium bromide (MTT, Sigma-Aldrich Chemical) was added to each well for 4 h incubation at 37° C. The purple formazan formed was then solubilized by DMSO and absorbance at 570 nm was read by a microplate reader (Molecular Devices, Sunnyvale, Calif.).

A further assay concerns MCF-7 cells. As to the kind of experiment: Drug sensitivity MTT assay with TRAIL, MCF-7. Particulars: for NZJU alone mean value (sensitivity, growth inhibition): drug alone (19-100 μM; TRAIL 100 ng/ml); for NZJU alone mean value (sensitivity, growth inhibition) / combine mean value (sensitivity, growth inhibition): 48 h; for Enhanced mean value: enhancement due to co-administration with TRAIL; for combine mean value (sensitivity, growth inhibition): mimetic at the dose of its row combined with TRAIL 100 ng/ml. Also on record: scale not given here. As for the experimental part:
as §2

Assay [2] concerns cancer cells (TRAIL resistance). As to the kind of experiment: Sensitization of cancer cells to TRAIL-induced apoptosis, general statements. The conditions noted are these: summary statement. As for the experimental part: as §2
A further assay deals with HELA cells. As to the kind of experiment: Drug sensitivity MTT assay with TRAIL, HELA. Also on record: scale not given here. Particulars: for NZJU alone mean value (sensitivity, growth inhibition): drug alone (19-100 μM; TRAIL 100 ng/ml); for NZJU alone mean value (sensitivity, growth inhibition) / combine mean value (sensitivity, growth inhibition): 48 h; for Enhanced mean value: enhancement due to co-administration with TRAIL; for combine mean value (sensitivity, growth inhibition): mimetic at the dose of its row combined with TRAIL 100 ng/ml. As for the experimental part: as §2

Where [3] appears, read: all five cell lines tested, read-out: IC50 values.

Like-named read-outs stand apart in the source and are kept apart here.

For `CCCCCCCCCCCCNC(=O)[C@@H](NC(=O)c1cc2ccccc2o1)[C@@H](C)O` [NZJU36, N-((2S,3R)-3-hydroxy-1-oxo-1-(dodecylamino)butan-2-yl)-benzofuran-2-carboxamide], the IC50 (commonly the concentration that inhibits the measured activity by half) in the assay on HepG2 is 22.9 ± 1.18 µM; in assay [1] (setting [3]) it was under 30 µM; with A431, 20 ± 0.9 µM; in the assay on SiHa, 12.8 ± 2.07 µM; in the assay with SW480 it was 21.4 µM; in the assay with SA, 10.5 ± 1.31 µM. For the same compound, the results for the IC50 in the assay with SW620 and in the assay with MCF-7 were 21.3 ± 1.28 µM and 20.9 ± 0.54 µM, respectively. For the same compound, the “direct anti-cancer cell activity” value in [1] is “direct anti-cancer cell activity”. Moreover, the “apoptotic cell death, fluorescent micrographs (FIG. 30)” value (shortened to “apoptotic cell death … (FIG. 30)”) in the assay on MES-SA cells is recorded as “apoptotic cell death”.

In the case of `CCCCCCCCCCCCCCNC(=O)[C@@H](NC(=O)c1cc2ccccc2[nH]1)[C@@H](C)O` [NZJU48, N-((2S,3R)-3-hydroxy-1-oxo-1-(tetradecylamino)butan-2-yl)-indole-2-carboxamide], the IC50 was 10.5 ± 0.35 µM in the assay on HepG2; under 20 µM in [1] (all of the cell lines tested, read-out: IC50 values); under 20 µM in assay [1] (multiple types of cancer cells, read-out: IC50); 12.2 ± 1.9 µM with A431; 14.2 ± 1.8 µM in the assay on SiHa; 11.8 ± 1.46 µM in the assay with SW480. The same compound showed an IC50 in the assay on SA of 12.1 ± 2.77 µM. For the same compound, the “direct anti-cancer cell activity” value in assay [1] is “direct anti-cancer cell activity”. For the same compound, in the assay with MES-SA cells, the “apoptotic cell death … (FIG. 30)” value is “apoptotic cell death”.

In the case of `CCCCCCCCCCCCNC(=O)[C@@H](NC(=O)Cc1c[nH]c2ccccc12)[C@@H](C)O` [NZJU27, N-((2S,3R)-3-hydroxy-1-oxo-1-(dodecylamino)butan-2-yl)-indole-3-acetic acid amide], the IC50 in the assay with HepG2 was 22.6 ± 2.89 µM; in [1] (setting [3]), under 30 µM; in the assay on A431, 23.4 ± 3.48 µM; in the assay with SiHa, 13.6 ± 1.02 µM; with SW480, 20 µM; in the assay with SA, 20 ± 0.74 µM. Also, the results for the IC50 in the assay with SW620 and in the assay with MCF-7 were 22 ± 2.86 µM and 15.5 ± 2.3 µM, respectively. Also, the “direct anti-cancer cell activity” value in assay [1] is given as “direct anti-cancer cell activity”. The “apoptotic cell death … (FIG. 30)” value in the assay on MES-SA cells is on record as “apoptotic cell death”.

With `CCCCCCCCCCCCCCNC(=O)[C@@H](NC(=O)c1cc2ccccc2n1C)[C@@H](C)O` [NZJU51, N-((2S,3R)-3-hydroxy-1-oxo-1-(tetradecylamino)butan-2-yl)-(N-methyl)indole-2-carboxamide], the IC50 in the assay with HepG2 is 34.5 ± 2.34 µM; in the assay on A431, 13.7 ± 1.73 µM; in the assay on SiHa it was 26.5 ± 2.33 µM; in the assay on SW480, 34.2 ± 1.36 µM; in the assay on SA it was 25.7 ± 0.42 µM. The “direct anti-cancer cell activity” value in assay [1] was “direct anti-cancer cell activity”. In the assay on MES-SA cells, the “apoptotic cell death … (FIG. 30)” value is “apoptotic cell death”.

Take `CCCCCCCCCCCCCCNC(=O)[C@@H](NC(=O)Cc1c[nH]c2ccccc12)[C@@H](C)O` [NZJU28, N-((2S,3R)-3-hydroxy-1-oxo-1-(tetradecylamino)butan-2-yl)-indole-3-acetic acid amide]: the IC50 in the assay with HepG2 is 21.1 ± 1.92 µM; in [1] (setting [3]), under 30 µM; in the assay with A431 it was 15.5 ± 2.95 µM; in the assay on SiHa it was 4.8 ± 0.29 µM; in the assay with SW480, 20 µM; in the assay on SA, 11.5 ± 0.97 µM. Also, the IC50 with SW620 amounted to 22 ± 0.71 µM; in the assay on MCF-7, 6.81 ± 1.73 µM. Also, in assay [1], the “direct anti-cancer cell activity” value is given as “direct anti-cancer cell activity”. The “apoptotic cell death … (FIG. 30)” value with MES-SA cells is on record as “apoptotic cell death”.

As to `CCCCCCCCCCCCCCNC(=O)[C@@H](NC(=O)c1cccs1)[C@@H](C)O` [NZJU34, N-((2S,3R)-3-hydroxy-1-oxo-1-(tetradecylamino)butan-2-yl)-2-thiophene carboxamide], the IC50 turned out to be 88.4 ± 15.5 µM in the assay on HepG2; 26.4 ± 4.03 µM in the assay with A431; 63 ± 0.25 µM in the assay on SiHa; 70.3 µM in the assay on SW480; 21.2 ± 3.78 µM in the assay with SA; 78.4 ± 11.1 µM in the assay on SW620. For the same compound, the IC50 in the assay on MCF-7 turned out to be 36.07 ± 0.27 µM. Besides, the entries for the “NZJU alone mean value (sensitivity, growth inhibition)” value in the assay with SW620 cells, in the assay with MCF-7 cells and in the assay with HELA cells were 0.315, 0.444 and 0.334, respectively. The values for the Enhanced mean value with SW620 cells, with MCF-7 cells and in the assay with HELA cells were 0.275, 0.263 and 0.375, respectively. Further, the entries for the “combine mean value (sensitivity, growth inhibition)” value with SW620 cells, with MCF-7 cells and with HELA cells were 0.664, 0.759 and 0.744, respectively. Moreover, in assay [2], the TRAIL sensitization activity entry is “TRAIL sensitization activity”. Further, in assay [1], the “direct anti-cancer cell activity” value is “direct anti-cancer cell activity”.

Turning to `CCCCCCCCCCCCNC(=O)[C@@H](NC(=O)c1ccco1)[C@@H](C)O` [NZJU13, N-((2S,3R)-3-hydroxy-1-oxo-1-(dodecylamino)butan-2-yl)-Furan-2-carboxamide], the IC50 in the assay with HepG2 was 147 ± 22.3 µM; in the assay with A431, 92.4 ± 2.64 µM; in the assay on SiHa, 64.3 ± 1.68 µM; in the assay on SW480, 125 ± 16.1 µM; in the assay with SA, 93.5 ± 3.13 µM; with SW620 it was 87.5 ± 7.58 µM. Half-maximal inhibition in the assay on MCF-7 (IC50) was put at 67.5 ± 4.88 µM. In addition, the “NZJU alone mean value (sensitivity, growth inhibition)” value in the assay on SW620 cells is recorded as 0.126; in the assay on MCF-7 cells it was 0.148; in the assay with HELA cells, 0.146. For the same compound, the values for the Enhanced mean value with SW620 cells, with MCF-7 cells and in the assay with HELA cells were 0.321, 0.321 and 0.254, respectively. The “combine mean value (sensitivity, growth inhibition)” value is given as 0.520 in the assay with SW620 cells, 0.582 in the assay with MCF-7 cells and 0.435 in the assay on HELA cells. For the same compound, in assay [2], the TRAIL sensitization activity entry was “TRAIL sensitization activity”. In assay [1], the “direct anti-cancer cell activity” value is listed as “direct anti-cancer cell activity”.

For `CCCCCCCCCCCCCCNC(=O)[C@@H](NC(=O)c1cc2ccccc2o1)[C@@H](C)O` [NZJU37, N-((2S,3R)-3-hydroxy-1-oxo-1-(tetradecylamino)butan-2-yl)-benzofuran-2-carboxamide], the IC50 in the assay with HepG2 is 23.4 ± 1.19 µM; in assay [1] (setting [3]), under 30 µM; with A431, 20.09 ± 0.16 µM; in the assay with SiHa, 14.2 ± 1.84 µM; in the assay with SW480, 22.8 µM; in the assay on SA, 9.61 ± 0.56 µM. In addition, the IC50 in the assay on SW620 is 26.7 ± 2.48 µM; in the assay on MCF-7, 23.4 ± 1.19 µM. Also, in assay [1], the “direct anti-cancer cell activity” value is on record as “direct anti-cancer cell activity”. In addition, the “apoptotic cell death … (FIG. 30)” value in the assay on MES-SA cells is given as “apoptotic cell death”.
